System: Neural progenitor cells with a tdTomato reporter gene
Assay: Cas9 RNP genome editing in neural progenitor cells pretreated with Bafilomycin A1
Format: cell-based
Details: cells pretreated 1 hour before Cas9 RNPs added outside the cells; genomic DNA collected after 48 hours, target locus analyzed for Cas9-mediated targeted genomic deletions; FIG. 1
Method: Neural progenitor cells with a tdTomato reporter gene were pretreated with Bafilomycin A1 for 1 hour prior to addition of Cas9 RNPs outside of the cells. After 24 hours cells were washed 2× with Heparin to remove any remaining Cas9 RNP outside the cells. After 48 hours genomicDNA was collected and the target locus analyzed for Cas9-mediated targeted genomic deletions.

## CO/C1=C\C(C)=C\[C@@H](C)[C@@H](O)[C@@H](C)C/C(C)=C/C=C/[C@H](OC)[C@@H]([C@@H](C)[C@@H](O)[C@H](C)[C@@]2(O)C[C@@H](O)[C@H](C)[C@@H](C(C)C)O2)OC1=O [bafilomycin A1]
  editing efficiency of 0×NLS-Cas9-2×NLS: no effect
  editing efficiency of cell penetrating Cas9 RNP, 4×NLS-Cas9-2×NLS: specifically increased

— patent US20200115688A1, “COMPOSITIONS AND METHODS FOR ENHANCING GENOME EDITING” (The Regents of the University of California, priority 2017, published 2020)
